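Cells were grown in 96-well plates and exposed to each compound for 48 hours at five concentrations; endpoints were interpolated linearly between bracketing concentrations, or set to the highest concentration if not reached. At the GI50, growth is halved.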 Calls of active or inactive are those of the source. No stated cut-off is given here; in the data, active = GI50 up to about 1.1 µM and inactive = higher.

Experimental findings from ChEMBL document CHEMBL1201862, “PubChem BioAssay data set” (2004) are described below.

Among the test systems are Hs-578T; OVCAR-8; MOLT-4; CCRF-CEM; A498; SN12C; HCT-15; SW-620; HL-60; EKVX; T47D; Malme-3M; SR; HOP-92; OVCAR-3; SF-295; HOP-62; 786-0; LOX IMVI; HT-29.
Common to all, as to test: inhibition of tumour cell growth, NCI panel, 48 h

With `CC1(C)OCC(CO)(Nc2nc(N3CC3)nc(N3CC3)n2)CO1`, the GI50 is 19 µM (inactive) in the experiment on Hs-578T; 11.3 µM (inactive) with OVCAR-8; 0.597 µM (active) in the experiment with MOLT-4; 1.16 µM (inactive) in the experiment with CCRF-CEM; 10.2 µM (inactive) with A498; 7.71 µM (inactive) with SN12C. The GI50 is 15.2 µM in the experiment with HCT-15; 14.5 µM (inactive) in the experiment with SW-620; 0.69 µM (active) in the experiment with HL-60; 32 µM (inactive) with EKVX; 1.49 µM (inactive) in the experiment on T47D; 16.9 µM (inactive) in the experiment on Malme-3M. The GI50 in the experiment with SR is 0.483 µM (active); in the experiment with HOP-92, 15.3 µM (inactive); in the experiment on OVCAR-3 it was 20.4 µM (inactive); in the experiment with SF-295, 2.96 µM (inactive); with HOP-62 it was 5.53 µM (inactive); in the experiment on 786-0, 3.88 µM (inactive). The GI50 in the experiment on LOX IMVI was 5.52 µM (inactive); in the experiment on HT-29, 13.9 µM (inactive).
Consider `O=C1/C(=C/C=C/c2ccccc2)N=C(c2ccccc2)N1c1ccc(S(=O)(=O)Nc2nccs2)cc1`, for which the GI50 in the experiment with Hs-578T is 37.8 µM (inactive); in the experiment on OVCAR-8, 29.3 µM (inactive); with MOLT-4 it was 50.1 µM (inactive); in the experiment on CCRF-CEM it was 32.4 µM (inactive); in the experiment with A498 it was 32.1 µM (inactive); in the experiment on SN12C, 30 µM (inactive). Also, the GI50 in the experiment with HCT-15 was 24.4 µM; in the experiment on SW-620, 35.1 µM (inactive); in the experiment with HL-60, 46.1 µM (inactive); with EKVX, 26.3 µM (inactive); with T47D, 27.6 µM (inactive); with Malme-3M it was 32.7 µM (inactive). The GI50 in the experiment with SR is 30.9 µM (inactive); in the experiment with HOP-92, 45.9 µM (inactive); in the experiment with OVCAR-3, 21.1 µM (inactive); in the experiment on SF-295, 33.5 µM (inactive); in the experiment on HOP-62, 39.3 µM (inactive); with 786-0 it was 34.8 µM (inactive). The GI50 in the experiment with LOX IMVI was 21.8 µM (inactive); in the experiment on HT-29 it was 23 µM (inactive).
Consider `O=C1CCC2C(O)c3cc4c(cc3C(c3ccc5c(c3)OCO5)N12)OCO4` (stereo not given), for which the GI50 was 24.4 µM (inactive) with Hs-578T; 35.6 µM (inactive) in the experiment with OVCAR-8; > 100 µM (inactive) in the experiment on MOLT-4; > 100 µM (inactive) with CCRF-CEM; > 100 µM (inactive) with A498; 76 µM (inactive) with SN12C. The GI50 is above 100 µM with HCT-15; > 100 µM (inactive) with SW-620; > 100 µM (inactive) in the experiment with HL-60; > 100 µM (inactive) in the experiment on EKVX; > 100 µM (inactive) in the experiment on T47D; > 100 µM (inactive) in the experiment on Malme-3M. Besides, the GI50 in the experiment on SR was > 100 µM (inactive); in the experiment on HOP-92, 35.2 µM (inactive); in the experiment with OVCAR-3, > 100 µM (inactive); with SF-295 it was 49.2 µM (inactive); in the experiment on HOP-62, 25 µM (inactive); in the experiment on 786-0, 82 µM (inactive). The GI50 in the experiment with LOX IMVI and with HT-29 was > 100 µM (inactive) each time.
Take `Cc1cccc2c1CC(C1OC(=O)c3c(C)cccc31)C2=O` (stereo not given): the GI50 with Hs-578T, in the experiment on OVCAR-8, in the experiment on MOLT-4, with CCRF-CEM, with A498 and with SN12C was > 100 µM (inactive) each time. The GI50 is above 100 µM with HCT-15; > 100 µM (inactive) in the experiment with SW-620; > 100 µM (inactive) with HL-60; > 100 µM (inactive) with EKVX; > 100 µM (inactive) in the experiment with T47D; > 100 µM (inactive) in the experiment on Malme-3M. The GI50 in the experiment on SR, with HOP-92, with OVCAR-3, in the experiment with SF-295, in the experiment with HOP-62 and in the experiment on 786-0 was > 100 µM (inactive) in each case. For the same molecule, the results for the GI50 in the experiment on LOX IMVI and with HT-29 were 70.6 µM (inactive) and > 100 µM (inactive), respectively.
Take `c1ccc(CSc2nc(N3CCOCC3)c3cn[nH]c3n2)cc1`: the GI50 was 13.2 µM (inactive) in the experiment on Hs-578T; 18.4 µM (inactive) with OVCAR-8; 22.2 µM (inactive) with MOLT-4; 0.0438 µM (active) with CCRF-CEM; 5.71 µM (inactive) in the experiment with A498; 13.4 µM (inactive) with SN12C. The GI50 in the experiment on HCT-15 was 25.8 µM; with SW-620, 25.9 µM (inactive); with HL-60, 36.6 µM (inactive); in the experiment on EKVX, 16.4 µM (inactive); with T47D, 15.6 µM (inactive); in the experiment with Malme-3M, 14.1 µM (inactive). Moreover, the GI50 in the experiment on SR is 10.5 µM (inactive); in the experiment on HOP-92, 0.237 µM (active); with OVCAR-3, 27.7 µM (inactive); with SF-295, 24.4 µM (inactive); with HOP-62, 27 µM (inactive); in the experiment with 786-0, 37.7 µM (inactive). Moreover, the GI50 was 15.4 µM (inactive) in the experiment on LOX IMVI and 30.8 µM (inactive) with HT-29.
For `COc1ccc(C)cc1Nc1nnc(-c2ccccc2N)s1`, the GI50 in the experiment with Hs-578T is 36.2 µM (inactive); with OVCAR-8 it was 35.7 µM (inactive); with MOLT-4 it was 2.41 µM (inactive); in the experiment with CCRF-CEM, 32.3 µM (inactive); in the experiment on A498 it was 74.8 µM (inactive); in the experiment on SN12C, 32 µM (inactive). For the same molecule, the GI50 with HCT-15 is 45.2 µM; in the experiment on SW-620 it was 36.1 µM (inactive); with HL-60 it was 19.5 µM (inactive); in the experiment on EKVX, 24.7 µM (inactive); in the experiment on T47D it was 49.2 µM (inactive); with Malme-3M it was 40.6 µM (inactive). Also, the GI50 is 13.4 µM (inactive) with SR; 21.3 µM (inactive) in the experiment with HOP-92; 37.5 µM (inactive) in the experiment with OVCAR-3; 34 µM (inactive) in the experiment on SF-295; 44.7 µM (inactive) with HOP-62; 51.2 µM (inactive) in the experiment with 786-0. For the same molecule, the results for the GI50 in the experiment with LOX IMVI and in the experiment on HT-29 were 47.1 µM (inactive) and 41.5 µM (inactive), respectively.
Regarding `c1ccc2c(CC3NCCN3)cccc2c1`, the GI50 in the experiment with Hs-578T, in the experiment on OVCAR-8, in the experiment on MOLT-4, in the experiment with CCRF-CEM, with A498 and in the experiment on SN12C was > 100 µM (inactive) in each case. The GI50 in the experiment with HCT-15 is above 100 µM; in the experiment on SW-620, > 100 µM (inactive); with HL-60, > 100 µM (inactive); in the experiment with EKVX, > 100 µM (inactive); in the experiment with T47D it was > 100 µM (inactive); in the experiment on Malme-3M it was > 100 µM (inactive). Also, the GI50 with SR is > 100 µM (inactive); in the experiment with HOP-92, 46 µM (inactive); in the experiment with OVCAR-3, > 100 µM (inactive); with SF-295 it was > 100 µM (inactive); in the experiment on HOP-62 it was > 100 µM (inactive); in the experiment with 786-0, > 100 µM (inactive). Also, the GI50 in the experiment with LOX IMVI and with HT-29 was > 100 µM (inactive) in each case.
